pKi: −log10 of the molar value.
Columns and labels:
human orexin 1 receptor = human orexin 1 receptor (Homo sapiens, UniProt O43613); experiment: Human orexin 1 receptor radioligand binding; conditions: human orexin 1 receptor; averages of 2-20 runs; read-out: hOX1 Ki
Procedure, shortened: (§1)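 Ki values derive from one-site competition IC50s corrected with the radioligand's predetermined Kd, triplicates per run, averaged over 2-20 runs. Cell homogenates (rat or human OX1R) compete against [^3H]-thiazolyl-oxadiazolyl-pyrrolidine methanone in PBS; 10 μM almorexant sets nonspecific binding; scintillation counting after washing.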

human orexin 2 receptor = human orexin 2 receptor (Homo sapiens (Human), UniProt O43614); experiment: Human orexin 2 receptor radioligand binding; conditions: human orexin 2 receptor; averages of 2-20 runs; read-out: hOX2 Ki
Chain of human orexin 2 receptor (O43614 whole entry): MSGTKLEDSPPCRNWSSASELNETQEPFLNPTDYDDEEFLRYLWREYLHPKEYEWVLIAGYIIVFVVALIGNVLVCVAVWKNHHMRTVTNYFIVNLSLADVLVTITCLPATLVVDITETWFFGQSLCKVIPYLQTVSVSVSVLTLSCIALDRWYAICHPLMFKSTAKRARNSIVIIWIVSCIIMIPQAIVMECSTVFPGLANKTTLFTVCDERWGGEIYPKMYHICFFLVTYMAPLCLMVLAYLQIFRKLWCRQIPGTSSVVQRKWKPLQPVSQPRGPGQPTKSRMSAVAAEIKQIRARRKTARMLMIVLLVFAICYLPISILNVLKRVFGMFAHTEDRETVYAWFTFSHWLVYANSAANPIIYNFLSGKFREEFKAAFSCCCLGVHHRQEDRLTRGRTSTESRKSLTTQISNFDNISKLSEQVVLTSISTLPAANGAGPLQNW
Procedure, shortened: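 Ki derived from one-site competition IC50 using predetermined Kd of [3H]-EMPA, triplicate points, 2-20 runs averaged. Binding done on homogenized HEK293 cells stably expressing human orexin 2 receptor, DMSO ≤0.1%, with 10 μM almorexant defining nonspecific binding; filtered, washed, scintillation counted.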

rat orexin 1 receptor = rat orexin 1 receptor (Rattus norvegicus, UniProt P56718); experiment: Rat orexin 1 receptor radioligand binding; conditions: rat orexin 1 receptor; averages of 2-20 runs; read-out: rOX1 Ki
Procedure, shortened: as §1

| SMILES | pKi (human orexin 1 receptor) | pKi (human orexin 2 receptor) | pKi (rat orexin 1 receptor) |
| --- | --- | --- | --- |
| O=C(c1cccc(F)c1-c1ncc(F)cn1)N1C[C@@H]2CC[C@H]1[C@H](Oc1ccc(C(F)(F)F)cn1)C2 [Example 263, (3-fluoro-2-(5-fluoropyrimidin-2-yl)phenyl)((1S,4R,6R)-6-((5-(trifluoromethyl)pyridin-2-yl)oxy)-2-azabicyclo[2.2.2]octan-2-yl)methanone] | 8.05 | 5.96 | 7.96 |
| Cc1cnc(C(=O)N2C[C@@H]3CC[C@H]2[C@H](Oc2ccc(C(F)(F)F)cn2)C3)c(-c2ncccn2)c1 [Example 264, (5-methyl-3-(pyrimidin-2-yl)pyridin-2-yl)((1S,4R,6R)-6-((5-(trifluoromethyl)pyridin-2-yl)oxy)-2-azabicyclo[2.2.2]octan-2-yl)methanone] | 7.80 | < 5.00 | 8.00 |
| Cc1ccc(-c2ncccn2)c(C(=O)N2C[C@@H]3CC[C@H]2[C@H](Oc2ccc(C(F)(F)F)cn2)C3)n1 [Example 265, (6-methyl-3-(pyrimidin-2-yl)pyridin-2-yl)((1S,4R,6R)-6-((5-(trifluoromethyl)pyridin-2-yl)oxy)-2-azabicyclo[2.2.2]octan-2-yl)methanone] | 7.72 | 6.51 | 7.85 |
| O=C(c1cccc(F)c1-c1ncccn1)N1C[C@@H]2CC[C@H]1[C@H](Oc1ncc(C(F)(F)F)cc1F)C2 [Example 266, (3-fluoro-2-(pyrimidin-2-yl)phenyl)((1S,4R,6R)-6-((3-fluoro-5-(trifluoromethyl)pyridin-2-yl)oxy)-2-azabicyclo[2.2.2]octan-2-yl)methanone] | 7.96 | 6.18 | 7.96 |
| Cc1ccc(O[C@@H]2C[C@H]3CC[C@@H]2N(C(=O)c2cccc(F)c2-c2ncccn2)C3)nc1 [Example 267, (3-fluoro-2-(pyrimidin-2-yl)phenyl)((1S,4R,6R)-6-((5-methylpyridin-2-yl)oxy)-2-azabicyclo[2.2.2]octan-2-yl)methanone] | 7.72 | 5.96 | 7.59 |
| O=C(c1ccccc1-n1nccn1)N1C[C@@H]2CC[C@H]1[C@H](Oc1ccc(Br)cn1)C2 [Example 268, (2-(2H-1,2,3-triazol-2-yl)phenyl)((1S,4R,6R)-6-((5-bromopyridin-2-yl)oxy)-2-azabicyclo[2.2.2]octan-2-yl)methanone] | 8.40 | 6.70 | 8.30 |
| O=C(c1cccc(F)c1-c1ncccn1)N1C[C@@H]2CC[C@H]1[C@H](Oc1ccc(Br)cn1)C2 [Example 269, ((1S,4R,6R)-6-((5-bromopyridin-2-yl)oxy)-2-azabicyclo[2.2.2]octan-2-yl)(3-fluoro-2-(pyrimidin-2-yl)phenyl)methanone] | 8.30 | 6.44 | 8.40 |
| O=C(c1ccccc1-n1nccn1)N1C[C@@H]2CC[C@H]1[C@H](Oc1ccc(Cl)cn1)C2 [Example 270, (2-(2H-1,2,3-triazol-2-yl)phenyl)((1S,4R,6R)-6-((5-chloropyridin-2-yl)oxy)-2-azabicyclo[2.2.2]octan-2-yl)methanone] | 8.52 | 6.70 | 8.40 |
| O=C(c1cccc(F)c1-c1ncccn1)N1C[C@@H]2CC[C@H]1[C@H](Oc1ccc(Cl)cn1)C2 [Example 271, ((1S,4R,6R)-6-((5-chloropyridin-2-yl)oxy)-2-azabicyclo[2.2.2]octan-2-yl)(3-fluoro-2-(pyrimidin-2-yl)phenyl)methanone] | 8.10 | 6.34 | 8.15 |
| O=C(c1ccccc1-c1ncc(F)cn1)N1C[C@@H]2CC[C@H]1[C@H](Oc1cnc(C(F)(F)F)cn1)C2 [Example 272, (2-(5-fluoropyrimidin-2-yl)phenyl)((1S,4R,6R)-6-((5-(trifluoromethyl)pyrazin-2-yl)oxy)-2-azabicyclo[2.2.2]octan-2-yl)methanone] | 7.96 | 5.85 | 7.64 |
| O=C(c1cccc(F)c1-c1ncc(F)cn1)N1C[C@@H]2CC[C@H]1[C@H](Oc1cnc(C(F)(F)F)cn1)C2 [Example 273, (3-fluoro-2-(5-fluoropyrimidin-2-yl)phenyl)((1S,4R,6R)-6-((5-(trifluoromethyl)pyrazin-2-yl)oxy)-2-azabicyclo[2.2.2]octan-2-yl)methanone] | 7.80 | 5.42 | 7.36 |
| O=C(c1ccc(F)cc1-c1ncccn1)N1C[C@@H]2CC[C@H]1[C@H](Nc1cnc(C(F)(F)F)cn1)C2 [Example 277, (4-fluoro-2-(pyrimidin-2-yl)phenyl)((1S,4R,6R)-6-((5-(trifluoromethyl)pyrazin-2-yl)amino)-2-azabicyclo[2.2.2]octan-2-yl)methanone] | 7.82 | 6.00 | 7.77 |
| O=C(c1cc(F)ccc1-c1ncccn1)N1C[C@@H]2CC[C@H]1[C@H](Nc1cnc(C(F)(F)F)cn1)C2 [Example 278, (5-fluoro-2-(pyrimidin-2-yl)phenyl)((1S,4R,6R)-6-((5-(trifluoromethyl)pyrazin-2-yl)amino)-2-azabicyclo[2.2.2]octan-2-yl)methanone] | 8.15 | 6.61 | 7.85 |
| O=C(c1c(F)cccc1-c1ncccn1)N1C[C@@H]2CC[C@H]1[C@H](Nc1cnc(C(F)(F)F)cn1)C2 [Example 279, (2-fluoro-6-(pyrimidin-2-yl)phenyl)((1S,4R,6R)-6-((5-(trifluoromethyl)pyrazin-2-yl)amino)-2-azabicyclo[2.2.2]octan-2-yl)methanone] | 7.89 | 6.75 | 7.96 |
| O=C(c1ccccc1-c1ncccn1)N1C[C@@H]2CC[C@H]1[C@H](Nc1cnc(C(F)(F)F)cn1)C2 [Example 280, (2-(pyrimidin-2-yl)phenyl)((1S,4R,6R)-6-((5-(trifluoromethyl)pyrazin-2-yl)amino)-2-azabicyclo[2.2.2]octan-2-yl)methanone] | 8.40 | 6.72 | 8.15 |
| O=C(c1cccc(F)c1-c1ncccn1)N1C[C@@H]2CC[C@H]1[C@H](Oc1ncc(C(F)(F)F)cc1Cl)C2 [Example 281, ((1S,4R,6R)-6-((3-chloro-5-(trifluoromethyl)pyridin-2-yl)oxy)-2-azabicyclo[2.2.2]octan-2-yl)(3-fluoro-2-(pyrimidin-2-yl)phenyl)methanone] | 7.72 | 6.47 | 8.30 |
| Cc1cnc(C(=O)N2C[C@@H]3CC[C@H]2[C@H](Oc2cnc(C(F)(F)F)cn2)C3)c(-c2ncccn2)c1 [Example 282, (5-methyl-3-(pyrimidin-2-yl)pyridin-2-yl)((1S,4R,6R)-6-((5-(trifluoromethyl)pyrazin-2-yl)oxy)-2-azabicyclo[2.2.2]octan-2-yl)methanone] | 7.19 | < 5.00 | 7.09 |
| Cc1cnc(C(=O)N2C[C@@H]3CC[C@H]2[C@H](Oc2ncc(C(F)(F)F)cc2F)C3)c(-c2ncccn2)c1 [Example 283, ((1S,4R,6R)-6-((3-fluoro-5-(trifluoromethyl)pyridin-2-yl)oxy)-2-azabicyclo[2.2.2]octan-2-yl)(5-methyl-3-(pyrimidin-2-yl)pyridin-2-yl)methanone] | 7.57 | < 5.00 | 7.68 |
| O=C(c1cccc(F)c1-c1ncccn1)N1C[C@H]2C[C@@H](Oc3ncc(Cl)cn3)[C@@H]1C2 [Example 284, ((1S,4R,6R)-6-((5-chloropyrimidin-2-yl)oxy)-2-azabicyclo[2.2.1]heptan-2-yl)(3-fluoro-2-(pyrimidin-2-yl)phenyl)methanone] | 7.33 | 5.25 | 7.35 |

— US9611277B2 (Janssen Pharmaceutica NV, priority 2013, dated 2017)
